We go through six molecules from patent publication US8673869B2, “Determinants of sensitivity to chemotherapeutic agents” (Western Sydney Local Health District, priority 2004, dated 2014).

Data set [1] concerns CHO-K1 cells and SC2 cells. In words: Carboplatin and oxaliplatin cell survival by modified MTS assay. The note with it: 2 hr drug exposure, 6 days incubation, FIG. 9. Type of data set: cell-based, Chinese hamster. The procedure: FIG. 9. Effect of carboplatin (A) and oxaliplatin (B) on cell survival in CHO-K1 cells (diamonds) and SC2 cells (squares). Cell survival was measured by modified MTS assay. Results are expressed as a percentage of the vehicle-treated control, as a mean and standard error of triplicate wells from six independent experiments. Results were subjected to a paired t-test where * is p<0.05 and ** is p<0.005.
CHO-K1 and SC2 cells were each seeded into 24-well plates, incubated overnight then exposed to a range of concentrations of carboplatin or oxaliplatin for 2 hr. The drugs were removed, wells washed and the growth media replaced. Cells were incubated for 6 days and cell proliferation measured using a modified colorimetric MTS (3-(4,5-dimethylthiazol-2-yl)-5-(3-carboxy-methoxyphenyl)-2-(4-sulfophenyl)-2H-tetrazolium, inner salt) proliferation assay. MTS solution was added to each well and colour development measured on a plate reader at 490 nm.

The subject of another data set is CHO-K1 cells. In words: Cisplatin sensitivity by colony formation (clonogenic assay). In kind it is cell-based, Chinese hamster. The note with it: 10 uM cisplatin for 2 hr, colony formation over 6 days, percentage of vehicle-treated control. The procedure: (§1) FIG. 2. Cisplatin sensitivity of CHO cell lines. Parental CHO-K1 and the platinum-sensitive clone SC2 were exposed to a range of cisplatin (CDDP) concentrations for 2 hrs. The drug was then removed and the surviving cell fraction was determined by colony formation over 6 days. Colonies were fixed, stained with 0.1% crystal violet and counted. The results are expressed as a percentage of vehicle-treated control (mean and standard error from duplicate plates in at least three separate experiments) at differing cisplatin (CDDP) concentrations. The present inventors have used a novel approach to identify genes that determine sensitivity to platinum-based chemotherapeutic agents. This strategy utilized the mutant Chinese hamster ovary (CHO) cell line SC2 which is more sensitive to platinum than the parent CHO-K1 cell line. Parental CHO-K1 and mutant CHO cell lines were provided as a gift from Dr I Hickson and Dr C Robson (Imperial Cancer Research Fund, Oxford UK) (Robson, C, et al, 1985). The strategy adopted is outlined in FIG. 1. CHO-K1 cells were mutagenised with ethyl methane sulphonate (EMS). Mutants with altered sensitivity to cisplatin were isolated using replica plating. […] The drug was then removed and the surviving cell fraction was determined by colony formation over 6 days. Colonies were fixed, stained with 0.1% crystal violet and counted. […]

Data set [2] relates to SC2 cells. Described as above. The note with it: 10 uM cisplatin for 2 hr, colony formation over 6 days, percentage of vehicle-treated control. Type of data set: cell-based, Chinese hamster. The procedure: as §1
Data set [3] has as its system SC2 cells. In words: Clonogenic survival of ANKRD1-transfected SC2 clones exposed to cisplatin. Type of data set: cell-based, Chinese hamster. As to conditions: SC2 clones transfected with rat ANKRD1 cDNA vs untransfected and vector control, 6 μM cisplatin, FIG. 5. The procedure: FIG. 5. […] Rat ANKRD1 cDNA was transfected into SC2 cells and transfected clones selected. ANKRD1-transfected clones were exposed to 6 μM cisplatin and the surviving fraction was measured by clonogenic assay. Survival in 4 transfected clones (SC2+ANKRD1) was compared with untransfected SC2 cells and empty vector-control transfected SC2 cells (SC2+vector).
To determine whether ANKRD1 has the ability to decrease sensitivity to cisplatin, rat ANKRD1 cDNA in the pcDNA3.1 expression vector, under the control of a CMV promoter, (a gift from the laboratory of Prof. L. Kedes, University of Southern California, USA) was transfected into the ANKRD1-deficient, platinum-sensitive SC2 mutant using Lipofectamine 2000 (Invitrogen Life Technologies, Carlsbad, Calif., USA). Transfected clones were selected and maintained in 400 μg/ml G-418 (Gibco-BRL).

The subject of data set [4] is human ovarian and breast cell lines. In words: Relative cisplatin sensitivity (IC37) by MTS proliferation assay. Type of data set: cell-based. The note with it: 72 hr drug exposure, FIG. 7B. The procedure: FIG. 7. Expression of ANKRD1 in ovarian and breast cell lines. RNA was extracted from a range of normal and malignant ovarian and breast cell lines. ANKRD1 expression was measured by real-time PCR. A. Results are shown as relative mRNA levels, corrected for human P0 (acidic phosphoprotein P0; also known as 36B4, part of the 60S ribosomal RNA complex) and 18S rRNA. All cell lines are human. HOSE 17.1 and BRE-80 are normal ovarian and breast cell lines respectively; the remaining cell lines are malignant. B. Cisplatin (CDDP) sensitivity was determined for 13 of the cell lines. Survival was determined by MTS assay after exposing the cells to drug for 72 hr. The IC37 is shown for each cell line, results are the mean determined from between two and seven independent experiments. Asterix indicates IC37 not determined. C. Association between growth inhibition by cisplatin (IC37) and expression of ANKRD1 mRNA in 13 cell lines.
Relative cisplatin sensitivity was measured in 13 cell lines using a colorimetric proliferation assay. Cells were seeded into 96-well plates in a volume of 100 μl at 500 to 2000 cells per well. […] IC37 values were calculated for each cell line from survival curves, using data generated from between two to seven independent experiments.
A general note: Tetrazolium assays rely on reduction of a dye to a coloured formazan, in cell work by metabolically active cells.

The next data set deals with ANKRD1. In words: ANKRD1 mRNA by real-time PCR in siRNA transfected CHO-K1 cells. Type of data set: cell-based, Chinese hamster. As to conditions: pools of stably transfected CHO-K1 cells, relative to parent CHO-K1, FIG. 6A. The procedure:
FIG. 6. Increased sensitivity to cisplatin in CHO-K1 cells following reduction of ANKRD1 expression by siRNA. CHO-K1 were transfected with one of three inserts designed to knock-down ANKRD1 expression by targeting regions of the open reading frame encoding the N-terminus (siRNA41; SEQ ID NO: 5), the central portion (siRNA58; SEQ ID NO: 6) or the C-terminus (siRNA77; SEQ ID NO: 7). Pools (P1) of siRNA transfected cells were selected and maintained in hygromycin B. A. ANKRD1 mRNA was measured by real-time PCR. Results are shown as a percentage of the parent CHO-K1 ANKRD1 mRNA levels and corrected for rodent GAPDH (glyceraldehyde-3-phosphate dehydrogenase) and 18S rRNA. B. Cisplatin (CDDP) sensitivity in CHO-K1 and siRNA transfected cells was measured by clonogenic assay. The results are expressed as the mean and standard error of duplicate plates from at least three separate experiments.
To confirm that ANKRD1 was able to modulate platinum sensitivity, the converse hypothesis was tested, that decreasing ANKRD1 expression in the resistant, CHO-K1 cell line would increase sensitivity. Three 19 bp siRNA oligonucleotides were designed to regions encoding the N- and C-terminus as well as to a central portion of the coding region of the CHO ANKRD1 sequence. The sequences of the sense strands of these siRNA oligonucleotides are shown in SEQ ID NOs: 5 (siRNA41), 6 (siRNA58) and 7 (siRNA77). […]
To examine ANKRD1 mRNA expression, 100 ng of cDNA used as templates in real-time PCR using the ABI PRISM 7700 Sequence Detection System (PE Applied Biosystems). Samples were made up in a final volume of 25 μL with Platinum Quantitative PCR Supermix-UDG (Invitrogen) and 250 nM of each primer set. […] Relative concentrations of ANKRD1 and housekeeping genes were determined by comparison of Ct values to a standard curve produced using a sample containing cDNA produced from RNA of known concentration. […]
A general note: Real-time PCR tracks product formation cycle by cycle.

Take `N.N.O=C([O-])C1(C(=O)[O-])CCC1.[Pt+2]` [carboplatin]: the “resistance of CHO-K1 cells compared to SC2 cells” value in data set [1] is “significantly more resistant”.
As to `N.N.[Cl][Pt][Cl]` [cisplatin], the results for the cell survival result with CHO-K1 cells and with SC2 cells [2] were “greater than 80%” and “less than 2%”, respectively. In addition, the “resistance to cisplatin after ANKRD1 transfection” value with SC2 cells [3] is listed as “increased resistance”. Further, the “relative cisplatin response (IC37)” value in data set [4] (COLO 316, T-47D and MCF-7 cell lines) is “among the most resistant”; in data set [4] (HOSE 17.1, A2780 and PEO1 cell lines) it was “amongst the most sensitive”.
On to `O=C1[O][Pt]2([NH][C@@H]3CCCC[C@H]3[NH]2)[O]C1=O` [oxaliplatin], for which the “resistance of CHO-K1 cells compared to SC2 cells” value in data set [1] is reported as “significantly more resistant”.

B1: siRNA77: 19 bp siRNA targeting the region of the ANKRD1 open reading frame encoding the C-terminus, expressed from pSilencer 2.1-U6 hygro vector (nucleic acid)
chain: GATCCCGTGGAACCAAAGCAATATTCTTCAAGAGAGAATATTGCTTTGGTTCCATTTTTTGGAAA
modifications: the letters are possibly those of the target site
notes: 19 bp siRNA targeting the region of the ANKRD1 open reading frame encoding the C-terminus, expressed from pSilencer 2.1-U6 hygro vector
B1: in the data set with ANKRD1, the “ANKRD1 expression (mRNA)” value is listed as “similarly reduced”.

B2: siRNA58: 19 bp siRNA targeting the central portion of the ANKRD1 coding region, expressed from pSilencer 2.1-U6 hygro vector (nucleic acid)
chain: GATCCCGTTCCGTGATATGCTTGAATTTCAAGAGAATTCAAGCATATCACGGAATTTTTTGGAA
modifications: the letters are possibly those of the target site
notes: 19 bp siRNA targeting the central portion of the ANKRD1 coding region, expressed from pSilencer 2.1-U6 hygro vector
Turning to B2, in the data set with ANKRD1, the “ANKRD1 expression (mRNA)” value was “similarly reduced”.

B3: siRNA41: 19 bp siRNA targeting the region of the ANKRD1 open reading frame encoding the N-terminus, expressed from pSilencer 2.1-U6 hygro vector (nucleic acid)
chain: GATCCCAGTTCCAGTTGTGAAGGAATTCAAGAGATTCCTTCACAACTGGAACTTTTTTTGGAAA
modifications: the letters are possibly those of the target site
notes: 19 bp siRNA targeting the region of the ANKRD1 open reading frame encoding the N-terminus, expressed from pSilencer 2.1-U6 hygro vector
B3: in the data set on ANKRD1, the “ANKRD1 expression (mRNA)” value is reported as “virtually ablated”.
